Source: ChEMBL document CHEMBL2321712 (ACS Med Chem Lett, 2013)
The source made the active and inactive calls. No cut-off for these calls is given here.

Columns and labels:
[1] = target: Cyclin-dependent kinase 4 (Homo sapiens, UniProt P11802); assay: Inhibition of CDK4 (unknown origin); assay type: single protein
[2] = target: Fibroblast growth factor receptor 1 (Homo sapiens, UniProt P11362); assay: Inhibition of FGFR1 (unknown origin); assay type: single protein
[3] = target: Cyclin-dependent kinase 2 (Homo sapiens, UniProt P24941); assay: Inhibition of CDK2 (unknown origin); assay type: single protein
[4] = target: Vascular endothelial growth factor receptor 2 (Homo sapiens, UniProt P35968); assay: Inhibition of KDR (unknown origin); assay type: single protein
A549 [5] = assay: Antitumor activity against human A549 cells xenografted in mouse assessed as tumor growth inhibition at 1.56 mg/kg, po qd up to 32 days; assay type: functional, organism-based; parameters: dose 1.56 mg/kg
[6] = Volume of distribution at steady state in rat at 5 mg/kg, iv; assay type: ADME, organism-based; parameters: dose 5 mg/kg, route intravenous; details: in vivo, read-out: Vdss
[7] = Oral bioavailability in monkey at 10 mg/kg; assay type: ADME, organism-based, Macaca mulatta; details: rhesus monkey, in vivo
[8] = Cmax in rat at 50 mg/kg, po; assay type: ADME, organism-based; parameters: dose 50 mg/kg, route oral; details: in vivo
LoVo = assay: Antitumor activity against human LoVo cells xenografted in mouse assessed as increase in mouse survival at 25 to 50 mg/kg, po qd up to 32 days; assay type: functional; details: dose mg/kg 25-50
[9] = Antiproliferative activity against human melanoma cells by MTT assay; assay type: functional, cell-based; details: Melanoma cell
[10] = Total clearance in monkey at 1 mg/kg, iv; assay type: ADME, organism-based, Macaca mulatta; parameters: dose 1 mg/kg, route intravenous; details: rhesus monkey, in vivo
[11] = Oral bioavailability in rat at 50 mg/kg; assay type: ADME, organism-based; details: in vivo
Aurora kinase A = target: T1, Aurora kinase A (Homo sapiens, UniProt O14965); assay: Inhibition of aurora-A (unknown origin)
T1 sequence (O14965 whole entry): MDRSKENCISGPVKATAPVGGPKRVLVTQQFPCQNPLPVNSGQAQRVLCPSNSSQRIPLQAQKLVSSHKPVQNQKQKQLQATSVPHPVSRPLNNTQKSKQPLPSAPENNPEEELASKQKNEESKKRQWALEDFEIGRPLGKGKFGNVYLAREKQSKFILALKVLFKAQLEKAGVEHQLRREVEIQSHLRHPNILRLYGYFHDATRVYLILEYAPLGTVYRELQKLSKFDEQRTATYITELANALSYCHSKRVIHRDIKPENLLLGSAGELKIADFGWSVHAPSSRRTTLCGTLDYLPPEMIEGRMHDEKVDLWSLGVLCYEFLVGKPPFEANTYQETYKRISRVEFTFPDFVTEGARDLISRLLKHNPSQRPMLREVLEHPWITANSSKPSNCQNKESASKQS

[12] = Volume of distribution at steady state in monkey at 1 mg/kg, iv; assay type: ADME, organism-based, Macaca mulatta; parameters: dose 1 mg/kg, route intravenous; details: rhesus monkey, in vivo, read-out: Vdss
[13] = Cmax in mouse at 25 mg/kg, po; assay type: ADME, organism-based; parameters: dose 25 mg/kg, route oral; details: in vivo
[14] = Tmax in rat at 50 mg/kg, po; assay type: ADME, organism-based; parameters: dose 50 mg/kg, route oral; details: in vivo
Mus musculus [15] = assay: Toxicity in human HCT116 cells xenografted mouse assessed as changes in body weight and gross observation at 25 to 50 mg/kg, po qd up to 32 days; assay type: organism-based, HCT-116; parameters: dose 25-50 mg/kg, route oral; details: in vivo, 768 h
[16] = Antiproliferative activity against human colon cancer cells by MTT assay; assay type: functional, cell-based; details: Cancer cell lines
Mus musculus [17] = assay: Toxicity in human LoVo cells xenografted mouse assessed as changes in body weight and gross observation at 25 to 50 mg/kg, po qd up to 32 days; assay type: organism-based; parameters: dose 25-50 mg/kg, route oral; details: in vivo, 768 h
[18] = Terminal half life in mouse at 5 mg/kg, iv; assay type: ADME, organism-based; parameters: dose 5 mg/kg, route intravenous; details: in vivo, read-out: beta t1/2 (converted)
[19] = Total clearance in rat at 5 mg/kg, iv; assay type: ADME, organism-based; parameters: dose 5 mg/kg, route intravenous; details: in vivo
MDA-MB-231 [20] = assay: Antitumor activity against human MDA-MB-231 cells xenografted in mouse assessed as tumor regression at 25 mg/kg, po qd up to 32 days; assay type: functional, organism-based; parameters: dose 25 mg/kg
[21] = AUC (0 to 24 hrs) in monkey at 10 mg/kg, po; assay type: ADME, organism-based, Macaca mulatta; parameters: time < 24 hr, dose 10 mg/kg, route oral; details: rhesus monkey, plasma
HUVEC [22] = assay: Antiangiogenic activity in HUVEC assessed as inhibition of PDGF-induced cell proliferation; assay type: functional, cell-based; details: Homo sapiens
[23] = Volume of distribution at steady state in mouse at 5 mg/kg, iv; assay type: ADME, organism-based; parameters: dose 5 mg/kg, route intravenous; details: in vivo, read-out: Vdss
MDA-MB-231 [24] = assay: Antitumor activity against human MDA-MB-231 cells xenografted in mouse assessed as tumor regression at 50 mg/kg, po qd up to 32 days; assay type: functional, organism-based; parameters: dose 50 mg/kg
[25] = Antiproliferative activity against human breast cancer cells by MTT assay; assay type: functional, cell-based; details: Cancer cell lines
[26] = Terminal half life in rat at 5 mg/kg, iv; assay type: ADME, organism-based; parameters: dose 5 mg/kg, route intravenous; details: in vivo, read-out: beta t1/2 (converted)
Mus musculus [27] = assay: Toxicity in human A549 cells xenografted mouse assessed as changes in body weight and gross observation at 25 to 50 mg/kg, po qd up to 32 days; assay type: organism-based; parameters: dose 25-50 mg/kg, route oral; details: in vivo, 768 h
[28] = Antiproliferative activity against human lung cancer cells by MTT assay; assay type: functional, cell-based; details: Cancer cell lines
[29] = Antiproliferative activity against human oral epidermoid cancer cells by MTT assay; assay type: functional, cell-based; details: Cancer cell lines
MDA-MB-231 [30] = assay: Antitumor activity against human MDA-MB-231 cells xenografted in mouse assessed as increase in mouse survival at 25 to 50 mg/kg, po qd up to 32 days; assay type: functional; details: dose mg/kg 25-50
HUVEC [31] = assay: Antiangiogenic activity in HUVEC assessed as inhibition of bFGF-induced cell proliferation; assay type: functional, cell-based; details: Homo sapiens
[32] = AUC (0 to 24 hrs) in mouse at 25 mg/kg, po; assay type: ADME, organism-based; parameters: time < 24 hr, dose 25 mg/kg, route oral; details: plasma
HCT-116 [33] = assay: Antitumor activity against human HCT116 cells xenografted in mouse assessed as tumor growth inhibition at 1.56 mg/kg, po qd up to 32 days; assay type: functional, organism-based; parameters: dose 1.56 mg/kg
[34] = Tmax in monkey at 10 mg/kg, po; assay type: ADME, organism-based, Macaca mulatta; parameters: dose 10 mg/kg, route oral; details: rhesus monkey, in vivo
[35] = Total clearance in mouse at 5 mg/kg, iv; assay type: ADME, organism-based; parameters: dose 5 mg/kg, route intravenous; details: in vivo
A549 [36] = assay: Antitumor activity against human A549 cells xenografted in mouse assessed as increase in mouse survival at 25 to 50 mg/kg, po qd up to 32 days; assay type: functional; details: dose mg/kg 25-50
[37] = Terminal half life in monkey at 1 mg/kg, iv; assay type: ADME, organism-based, Macaca mulatta; parameters: dose 1 mg/kg, route intravenous; details: rhesus monkey, in vivo, read-out: beta t1/2 (converted)
[38] = AUC (0 to 24 hrs) in rat at 50 mg/kg, po; assay type: ADME, organism-based; parameters: time < 24 hr, dose 50 mg/kg, route oral; details: plasma
HCT-116 [39] = assay: Antitumor activity against human HCT116 cells xenografted in mouse assessed as increase in mouse survival at 25 to 50 mg/kg, po qd up to 32 days; assay type: functional; details: dose mg/kg 25-50
MDA-MB-231 [40] = assay: Antitumor activity against human MDA-MB-231 cells xenografted in mouse assessed as tumor growth inhibition at 50 mg/kg, po qd up to 32 days; assay type: functional, organism-based; parameters: dose 50 mg/kg
Mus musculus [41] = assay: Toxicity in human MDA-MB-231 cells xenografted mouse assessed as changes in body weight and gross observation at 25 to 50 mg/kg, po qd up to 32 days; assay type: organism-based; parameters: dose 25-50 mg/kg, route oral; details: in vivo, 768 h
[42] = Antiproliferative activity against human prostate cancer cells by MTT assay; assay type: functional, cell-based; details: Cancer cell lines
[43] = Oral bioavailability in mouse at 25 mg/kg; assay type: ADME, organism-based; details: in vivo
HUVEC [44] = assay: Antiangiogenic activity in HUVEC assessed as inhibition of VEGF-induced cell proliferation; assay type: functional, cell-based; details: Homo sapiens
[45] = Cmax in monkey at 10 mg/kg, po; assay type: ADME, organism-based, Macaca mulatta; parameters: dose 10 mg/kg, route oral; details: rhesus monkey, in vivo
22Rv1 (Homo sapiens) = assay: Antitumor activity against human 22Rv1 cells xenografted in mouse assessed as tumor growth inhibition at 25 to 50 mg/kg, po qd up to 32 days; details: dose mg/kg 25-50
[46] = Tmax in mouse at 25 mg/kg, po; assay type: ADME, organism-based; parameters: dose 25 mg/kg, route oral; details: in vivo

Sequence of Fibroblast growth factor receptor 1 (P11362 whole entry): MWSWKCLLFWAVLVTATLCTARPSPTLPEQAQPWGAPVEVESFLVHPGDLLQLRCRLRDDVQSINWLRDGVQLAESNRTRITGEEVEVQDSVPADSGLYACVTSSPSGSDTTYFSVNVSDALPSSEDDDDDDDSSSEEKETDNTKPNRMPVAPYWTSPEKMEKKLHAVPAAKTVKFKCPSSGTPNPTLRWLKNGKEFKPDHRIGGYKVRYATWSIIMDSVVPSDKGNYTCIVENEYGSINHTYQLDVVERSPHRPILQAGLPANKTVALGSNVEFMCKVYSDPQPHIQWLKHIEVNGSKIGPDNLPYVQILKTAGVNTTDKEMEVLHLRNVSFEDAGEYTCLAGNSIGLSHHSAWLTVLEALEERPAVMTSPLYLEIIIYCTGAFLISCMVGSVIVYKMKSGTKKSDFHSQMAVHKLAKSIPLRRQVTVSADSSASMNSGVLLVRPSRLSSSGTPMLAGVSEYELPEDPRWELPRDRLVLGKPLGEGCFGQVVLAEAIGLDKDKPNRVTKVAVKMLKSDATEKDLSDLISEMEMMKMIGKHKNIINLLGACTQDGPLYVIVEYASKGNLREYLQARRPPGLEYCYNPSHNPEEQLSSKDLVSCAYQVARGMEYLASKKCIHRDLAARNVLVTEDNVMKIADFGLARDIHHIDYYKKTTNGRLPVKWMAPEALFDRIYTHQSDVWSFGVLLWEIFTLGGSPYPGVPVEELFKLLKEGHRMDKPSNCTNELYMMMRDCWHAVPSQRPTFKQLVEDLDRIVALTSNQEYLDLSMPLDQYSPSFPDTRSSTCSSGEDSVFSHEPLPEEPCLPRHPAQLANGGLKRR
Sequence of Vascular endothelial growth factor receptor 2 (P35968 whole entry): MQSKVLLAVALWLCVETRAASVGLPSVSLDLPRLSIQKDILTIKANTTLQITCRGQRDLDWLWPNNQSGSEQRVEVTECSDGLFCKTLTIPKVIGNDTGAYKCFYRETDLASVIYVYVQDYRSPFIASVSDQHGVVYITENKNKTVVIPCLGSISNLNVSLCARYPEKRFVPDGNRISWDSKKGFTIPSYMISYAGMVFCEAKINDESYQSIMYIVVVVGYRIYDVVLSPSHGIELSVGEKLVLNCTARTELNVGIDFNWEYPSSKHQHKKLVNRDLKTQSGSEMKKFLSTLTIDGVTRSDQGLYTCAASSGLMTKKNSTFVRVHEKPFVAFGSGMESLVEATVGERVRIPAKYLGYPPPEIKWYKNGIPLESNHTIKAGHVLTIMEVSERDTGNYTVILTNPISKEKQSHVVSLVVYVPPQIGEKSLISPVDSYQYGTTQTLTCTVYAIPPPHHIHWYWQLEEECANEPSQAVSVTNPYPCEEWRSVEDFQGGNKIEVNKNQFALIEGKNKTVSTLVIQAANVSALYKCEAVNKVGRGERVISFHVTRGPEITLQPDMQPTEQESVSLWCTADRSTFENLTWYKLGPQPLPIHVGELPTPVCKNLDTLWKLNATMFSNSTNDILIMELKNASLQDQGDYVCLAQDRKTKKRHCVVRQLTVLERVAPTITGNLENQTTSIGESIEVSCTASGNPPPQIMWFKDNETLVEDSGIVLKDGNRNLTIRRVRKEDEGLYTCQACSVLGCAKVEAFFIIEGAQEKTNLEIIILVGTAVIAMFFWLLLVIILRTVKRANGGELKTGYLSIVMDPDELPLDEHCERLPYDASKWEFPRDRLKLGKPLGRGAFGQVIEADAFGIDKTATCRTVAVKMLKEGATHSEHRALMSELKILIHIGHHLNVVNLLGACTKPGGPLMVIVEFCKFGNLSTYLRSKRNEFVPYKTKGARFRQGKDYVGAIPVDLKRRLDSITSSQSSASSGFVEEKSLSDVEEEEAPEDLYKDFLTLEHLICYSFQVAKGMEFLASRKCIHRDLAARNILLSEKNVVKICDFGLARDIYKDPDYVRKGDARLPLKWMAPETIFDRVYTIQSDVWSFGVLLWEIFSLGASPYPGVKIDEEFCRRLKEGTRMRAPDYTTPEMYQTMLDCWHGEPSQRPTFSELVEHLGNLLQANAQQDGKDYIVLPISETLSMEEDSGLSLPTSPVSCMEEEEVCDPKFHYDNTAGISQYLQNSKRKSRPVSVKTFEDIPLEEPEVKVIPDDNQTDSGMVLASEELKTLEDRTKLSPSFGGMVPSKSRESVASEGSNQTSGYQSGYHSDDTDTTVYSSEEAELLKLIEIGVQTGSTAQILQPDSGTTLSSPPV
Sequence of Cyclin-dependent kinase 4 (P11802 whole entry): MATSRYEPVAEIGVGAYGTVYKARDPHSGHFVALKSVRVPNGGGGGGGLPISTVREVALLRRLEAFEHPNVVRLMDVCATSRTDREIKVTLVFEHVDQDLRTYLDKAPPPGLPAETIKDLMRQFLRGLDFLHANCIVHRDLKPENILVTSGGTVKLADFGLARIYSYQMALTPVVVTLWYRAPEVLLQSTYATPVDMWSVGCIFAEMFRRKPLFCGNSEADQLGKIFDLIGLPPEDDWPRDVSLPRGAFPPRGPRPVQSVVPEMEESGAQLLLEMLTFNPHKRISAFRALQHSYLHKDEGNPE

For `Cc1[nH]nc2c1N=C(c1ccccc1Cl)c1cc(N)ccc1N2`, the IC50 [1] was 303 nM, the IC50 [2] was 50 nM and the IC50 [3] was 88 nM. It also gave an IC50 [4] of 34 nM.

With `COc1cc2c(cc1F)C(c1ccccc1Cl)=Nc1c(n[nH]c1C)N2` [RG-1530] the TGI (A549 [5]) was “inactive”, the Vd [6] was 3.22 L/kg and the bioavailability [7] was 22.1%. For the same compound, the Cmax [8] was 5360 ng/mL, the Survival (LoVo) was “>=25%” and the IC50 [9] was 200 nM. For the same compound, the clearance [10] was 7.82 mL/min/kg, the bioavailability [11] was 88.7% and the IC50 (Aurora kinase A) was 58 nM. For the same compound, the Vd [12] was 1.59 L/kg, the Cmax [13] was 5070 ng/mL and the Tmax [14] was 4 h. The Activity (Mus musculus [15]) was “Non-toxic”, the IC50 [16] was 200 nM and the Activity (Mus musculus [17]) was “Non-toxic”. For the same compound, the half-life [18] was 4.32 h, the clearance [19] was 8.78 mL/min/kg and the Activity (MDA-MB-231 [20]) was “Active”. For the same compound, the AUC(0-t) at 24 h [21] was 4820 ng·h/mL, the IC50 (HUVEC [22]) was 688 nM and the IC50 [2] was 28 nM. For the same compound, the Vd [23] was 3.12 L/kg, the Activity (MDA-MB-231 [24]) was “Active” and the IC50 [25] was 200 nM. For the same compound, the half-life [26] was 4.7 h, the Activity (Mus musculus [27]) was “Non-toxic” and the IC50 [28] was 200 nM. For the same compound, the IC50 [29] was 200 nM, the Survival (MDA-MB-231 [30]) was “>=25%” and the IC50 (HUVEC [31]) was 118 nM. For the same compound, the AUC(0-t) at 24 h [32] was 46700 ng·h/mL, the TGI (HCT-116 [33]) was “inactive” and the Tmax [34] was 4 h. The clearance [35] was 8.8 mL/min/kg, the Survival (A549 [36]) was “>=25%” and the half-life [37] was 3.83 h. The AUC(0-t) at 24 h [38] was 86300 ng·h/mL, the Survival (HCT-116 [39]) was “>=25%” and the TGI (MDA-MB-231 [40]) was “Active”. The Activity (Mus musculus [41]) was “Non-toxic”, the IC50 [42] was 200 nM and the bioavailability [43] was 96.9%. It also gave an IC50 (HUVEC [44]) of 49 nM, a Cmax [45] of 406 ng/mL and a TGI (22Rv1 (Homo sapiens)) of 98%. For the same compound, the Tmax [46] was 2 h.
